According to patent US9458505B2, “Diagnosis of cowden and cowden-like syndrome by detection of decreased killin expression” (The Cleveland Clinic Foundation, priority 2011, dated 2016):

How the values were obtained:
[1] = tested on: PTEN expression; assay: Quantitative RT-PCR of PTEN expression in KILLIN-methylated patient lymphoblastoid cell lines after demethylation and/or histone deacetylase inhibition treatment; assay type: cell-based, human; settings: seven of the eight patient lymphoblastoid cell lines; decitabine 0.5 μM and/or TSA 200 nM; pooled result for demethylation and/or inhibition of histone deacetylation
Procedure: (§1) The quantitative reverse transcription PCRs were performed as previously described. Bennett et al., Cancer Res.; 67(10): 4657-4664 (2007). The study population included four controls and eight patients that were selected based on confirmed methylation status by bisulfite sequencing analysis and representation of the Cowden syndrome and Cowden-like syndrome condition.
(§2) The study population included eight patients that were selected based on confirmed methylation status by bisulfite sequencing analysis and representation of Cowden syndrome and Cowden-like syndrome condition. Demethylation treatment was performed with a cytosine analog, 5-aza-2′deoxycytidine (decitabine; Sigma), for 96 hours at 0.5 μM concentration with approximately 40% confluent suspension lymphoblastoid cells. Inhibition of histone deacetylation was performed with 200 nM concentration of Trichostatin A (TSA; Sigma) with approximately 40% confluent suspension lymphoblastoid cells for 48 hours, with or without 0.5 μM decitabine. The drug was changed daily, and the cells were collected for RNA isolation.

[2] = tested on: KILLIN expression; assay: Quantitative RT-PCR of KILLIN expression in KILLIN-methylated patient lymphoblastoid cell lines after demethylation and/or histone deacetylase inhibition treatment; assay type: cell-based, human; settings: pooled result for decitabine and/or TSA; for patient cell lines in which KILLIN expression was restored: 7 of the 8 patient lymphoblastoid cell lines, decitabine 0.5 μM and/or TSA 200 nM; for KILLIN expression increase following exposure to decitabine and/or TSA: patient lymphoblastoid cell lines, decitabine 0.5 μM 96 hours and/or TSA 200 nM 48 hours, normalized to untreated counterpart set as 1, 95% confidence interval 1.4-18.1
Procedure: as §1, §2

Row | SMILES | patient cell lines with significant decrease in PTEN expression [1] [%] | patient cell lines in which KILLIN expression was restored [2] [%] | KILLIN expression increase following exposure to decitabine and/or TSA [2] [fold]
1 | CC(/C=C/C(=O)NO)=C\[C@@H](C)C(=O)c1ccc(N(C)C)cc1 [TSA, Trichostatin A] | 88 | 88 | 4.88
2 | Nc1ncn([C@H]2C[C@H](O)[C@@H](CO)O2)c(=O)n1 [decitabine, 5-aza-2′deoxycytidine] | 88 | 88 | 4.88
